Data from patent publication US5843916A, “Cyclic amp analogues, individually and in pairs, to inhibit neoplastic cell growth” (priority 1994, dated 1998).
Read-outs that look alike come from different tables or passages of the source. One block for each compound: values may come before it.

How the values were obtained:
[1] = system: breast (MCF-7) and colon (LS-174T) cancer cell lines; assay: Growth inhibition of breast and colon cancer cells (Table 1); format: cell-based, human; conditions: Homo sapiens
Procedure: The compounds of the present invention were added using 100X concentrated stock solutions. At desired times, cell counts in duplicate were performed on a Coulter counter after harvesting the cells with gentle trypsinization. […] Cell counts were performed on each of three or more separate experiments, and the average values are expressed as percent growth inhibition as compared with untreated control cells. | ^a The values of percentage growth inhibition were determined from th | doseresponse curve experiments. Each value represents an average value an | range (in parentheses) obtained from three or more separate experiments. | The cell counts in duplicate were performed at day 3 and day 4 after two | treatments (day 0 and day 2) with analogs (seeding on day -1).

[2] = system: breast and colon cancer lines (MCF-7, T-47D, ZR-75-1, MCF-7ras, MDA-MB-231, BT-20, HBL-100, LS-174T, WiDr, HT-29); assay: Growth inhibition of breast and colon cancer lines (FIG. 1); format: cell-based, human; conditions: densitometry text
[3] = system: breast and colon cancer cells; assay: Effect on cell morphology (FIG. 2); format: cell-based, human
Excerpt: The photographs were taken on Day 4, ×160.
Furthermore, the synergistic growth inhibitory effect of C-6 and C-8 analogue combinations was also reflected in the change in the cell morphology.

MDA-MB-231 [4] = assay: Cell cycle analysis by flow cytometry (Table 3); format: cell-based, human; conditions: 35 μM; 3 days
Procedure: (§1) DNA histograms were generated on FACS II by using the DNA intercalating dye propidium iodide as described by Braylan et al. in Cytometry 2: 337-343, 1982. The percentage of cells in each cycle phase was calculated by using a PDP-11/34 computer and software as described by Neckers et al., Mol. Cell. Biol. 6: 4244-4250, 1986.
(§2) Breast (MCF-7, MDA-MB-231) and colon (LS-174T) cancer cells in log
(§3) phase (untreated control) and 3 days after treatment with 8-C1-cAMP
(§4) (10 μM), N^6 -benzyl-cAMP (35 μM), and 8-Cl-adenosine (5
(§5) were analyzed for DNA content by flow cytometric analysis as described
(§6) below. Similar results were obtained with other breast and colon cancer

[5] = system: RI and RII cAMP receptor proteins, LS-174T; assay: Photoaffinity labelling of cAMP receptor proteins (Table 10, FIG. 6); format: cell-based, human; conditions: 3 days, 8-Cl and N^6-benzyl 10 μM, dibutyryl 1 mM
Procedure: (§7) Photoactivated incorporation of 8-N3 [^32 P] was performed as described below.
(§8) M is marker proteins of known molecular weight.
(§9) Each lane contained 50 micrograms protein for SDS-PAGE.
(§10) The incubations were carried out at 23° C. for 60 minutes in 96-well immunoplates. The reaction mixtures were then irradiated for 30 seconds at 254 nm, placing a Mineralite UVS-11 hand lamp directly onto the plate. The samples were mixed with 25 microliters of 3× sample buffer (3% SDS, 15% beta-mercaptoethanol, 30 mM Tris, 30% glycerol, 1% bromophenol blue saturated solution), boiled for 3 minutes, and centrifuged at 700 × g for five minutes. The samples containing 10-30 micrograms of protein were subjected to 0.05% SDS-12% PAGE. The gels were fixed, dried, and exposed to X-ray films overnight. The protein concentrations were determined by the method of Lowry et al., J. Biol. Chem. 193: 265-275, 1951, with bovine serum albumin as standard.
(§11) The levels of the receptor proteins are expressed relative to the RI level in the untreated control cells of MDA-MB-231 and LS-174T which are each set equal to 1.0 O.D.; the scale was expanded to differentiate the lower intensity bands.

[6] = system: RI and RII cAMP receptor proteins, MDA-MB-231; assay: as above; format: cell-based, human; conditions: 3 days, 8-Cl and N^6-benzyl 10 μM, dibutyryl 1 mM
Procedure: as §7, §8, §9, §10, §11

HL-60 = assay: Growth inhibition of leukemic cells (Table 12); format: cell-based; conditions: Homo sapiens
Molt-4 = assay: Growth inhibition of leukemic cells (Table 12); format: cell-based, human; conditions: Homo sapiens, MOLT-4; read-out: Inhibition of Growth IC50, Molt-4
K-562 = assay: Growth inhibition of leukemic cells (Table 12); format: cell-based; conditions: Homo sapiens, K562
myc-K562 = assay: Growth inhibition of leukemic cells (Table 12); format: cell-based; conditions: Homo sapiens
HL-60 Cells = assay: Cell cycle kinetics of HL-60 cells (Table 17); format: cell-based, human; conditions: 10 μM, 96 hours
Procedure: Briefly, cells were fixed in 70% ethanol and stored at 4° C. before analysis. Nuclear DNA was stained with propidium iodide, 50 μg/ml in phosphate-buffered saline (pH 7.4), for 30 minutes at room temperature. RNase was added to avoid double-helix RNA staining. The DNA content of cells was analyzed by a FACScan flow cytometer coupled with a Hewlett-Packard computer. Cell cycle data analysis was performed by a Cell-FIT program according to the method of Dean (Cell Tissue Kinet. 13: 299-308 (1980)) (Becton Dickinson Immunocytometry Systems). Pulse area versus pulse width gating was performed to exclude doublets from the G2 -M region. For each sample, 20,000 events were stored in list mode. Cell surface antigen analysis was performed by flow cytometry with FACScan using a panel of monoclonal antibodies reactive with either monocytic or myeloid cells.

[7] = system: RI and RII cAMP receptor proteins, breast (MDA-MB-231) and colon (LS-174T) cancer cells; assay: cAMP receptor protein levels, breast and colon cancer cells (FIG. 6); format: cell-based, human
Procedure: as §7, §8
The incubations were carried out at 23° C. for 60 minutes in 96-well immunoplates. […] The gels were fixed, dried, and exposed to X-ray films overnight.

MDA-MB-231 [8] = assay: Growth of MDA-MB-231 cells (Tables 3, 10); format: cell-based; conditions: Homo sapiens, MDA-MB-231, 72 h, 3 days, control 100 (Table 3)
Procedure: (§12) All breast cancer cell lines were grown in IMEM supplemented with 10% fetal bovine serum, HEPES 20 mM, penicillin-streptomycin, and extra glutamine. Colon carcinoma cell lines were grown in EMEM supplemented with 10% FBS, EMEM, NEAA, HEPES 20 mM, extra glutamine, and penicillin-streptomycin. The cells were grown at 37° C. in humidified incubators in an atmosphere of 5% CO2.
(§13) For cell growth experiments, 2-3×10^5 cells/60 mm dish were seeded, and 24 hours later (Day 0), the medium was removed, and fresh medium and the additives were added then and every 48 hours thereafter. The compounds of the present invention were added using 100X concentrated stock solutions. At desired times, cell counts in duplicate were performed on a Coulter counter after harvesting the cells with gentle trypsinization.

[9] = system: four leukemic cell lines (HL-60, K-562, myc-K562, Molt-4); assay: Growth inhibition of leukemic cell lines; format: cell-based, human; conditions: Homo sapiens; leukemic cell lines, range
[10] = system: LS-174T colon cancer line; assay: Growth and release from growth inhibition (FIG. 3); format: cell-based, human; conditions: 5 μM
Procedure: 1×10^5 cells/60 mm dish were seeded, and 24 hours later (Day 0), the medium was removed and fresh medium and additives were added then and every 48 hours thereafter. […] The triplicate cell count for each experimental point never varied by more than 10%.

LS-174T = assay: Cell cycle analysis by flow cytometry (Table 3); format: cell-based, human; conditions: 5 μM; 3 days
Procedure: as §1, §2, §3, §4, §5, §6
^a The paired numbers were derived from two separate experiments.

[11] = system: p21 ras protein, MCF-7 cells; assay: Western blotting of p21 ras protein (Table 11, FIG. 7); format: cell-based, human
Procedure: Western blotting of p21 protein was performed as described below. […] V is cell lysate from Ha-MuSV-transformed NIH3T3 clone 13-3B-4. M, marker proteins of known molecular weight.
Each lane contained 100 micrograms of protein for SDS-PAGE.
Cellular proteins present in cell extracts were separated by 12% SDS-PAGE and transferred to nitrocellulose sheets in transfer buffer (25 mM Tris, 192 mM glycine, 20% methanol, pH 7.4). Nitrocellulose sheets were washed and first incubated with 3% bovine serum albumin in NTE-NP40 (50 mM Tris-HCl, pH 7.5, 150 mM NaCl, 2 mM EDTA, 0.1% Nonidet P-40) for three hours at 37° C. and then sequentially incubated with medium containing p21 monoclonal antiserum Y13-259 directed against the Ha-MuSV-encoded p21 for sixteen hours at 4° C., rabbit anti-rat IgG for 2.5 hours in an ice water bath, and 5×10^5 cpm/ml ^125 I-protein A for one hour in an ice water bath. The nitrocellulose sheets were air dried and exposed to Kodak XAR film for 12-36 hours at -20° C. Comparison of the resulting autoradiograms with others in which normal rat serum was substituted for p21 monoclonal antibody permitted identification of p21. To provide a reference p21, cell lysates were prepared from NIH 3T3 clone 13-3B-4 that had been transfected with HaMuSV DNA.
The levels of p21 protein are expressed relative to the p21 level in the untreated control cells which is set equal to 1.0 O.D.

[12] = system: RI cAMP receptor protein, Molt-4 leukemic cells; assay: Photoaffinity labelling of RI cAMP receptor protein (FIG. 9A); format: cell-based, human; conditions: three days; 8-Cl-cAMP 5 μM, DBcAMP 1 mM, 8-Cl-adenosine 5 μM
[13] = system: c-myc protein, Molt-4 leukemic cells; assay: Western blotting of c-myc protein (FIG. 9B); format: cell-based, human; conditions: three days; 8-Cl-cAMP 5 μM, DBcAMP 1 mM, 8-Cl-adenosine 5 μM
Procedure: The cells were grown in suspension culture in RPMI 1640 medium supplemented with 10% fetal bovine serum, penicillin (50 U/ml), streptomycin (500 μg/mL), 10 mM HEPES buffer, and extra glutamine. […] Surface antigen analysis of HL-60 cells was performed by flow cytometry using a panel of monoclonal antibodies reactive with either myeloid cells or monocytic cells. Terminal deoxynucleotidyl transferase (TdT) was assayed by an immunoperoxidase method using a TdT fluorescence kit. Western blotting of c-myc protein was performed using c-myc antibody 15206D11 (Scripps Clinic and Research Foundation, LaJolla, Calif.).
M, marker proteins of known molecular weight. […] The resulting supernatants were used as cell lysates. […] ND=nondetectable.

MCF-7 = assay: Growth of MCF-7 cells (Tables 3, 11); format: cell-based; conditions: Homo sapiens, MCF7, 72 h, Table 11; 8-Cl-cAMP 10 μM, 8-Cl-adenosine 5 μM, DBcAMP 500 μM; control 100
Procedure: as §12, §13

cells = assay: Growth inhibition by 8-Cl-AMP; format: cell-based; conditions: as high as 100 μM

IC50 (HL-60): 20 µM
IC50 (Molt-4): 10 µM
IC50 (K-562): 27 µM
IC50 (myc-K562): 30 µM
IC50 [9]: 10 to 30 µM
Compound: O=P1(O)OC[C@H]2O[C@@H](n3cnc4c(NCc5ccccc5)ncnc43)[C@H](O)[C@@H]2O1 [N^6 -benzyl-cAMP]
inhibition at 50 µM ([1]; 72 h, 50 μM, day 3, average (range), read-out: % Growth Inhibition, Day 3): 56%
inhibition at 50 µM ([1]; 96 h, 50 μM, day 4, average (range), read-out: % Growth Inhibition, Day 4): 70%
inhibition at 50 µM ([1]; 50 micromolar, read-out: growth inhibition): 30 to 70%
growth inhibition of cancer lines [2]: 45-70%
cell morphology ([3]; 0.5 μM alone, four days): did not induce a change in the cell morphology
cell morphology ([3]; 50 μM, three to four days): induced the morphological change
% Cell Population in G1 (MDA-MB-231 [4]): 60%
% Cell Population in G2M (MDA-MB-231 [4]): 15%
% Cell Population in S (MDA-MB-231 [4]): 25%
cell cycle phase distribution (MDA-MB-231 [4]): not appreciably different
RII/RI [5]: 1.25
relative level of RI ([5]; control RI = 1.0 O.D.): 0.20 ± 0.02
relative level of RII ([5]; control RI = 1.0 O.D.): 0.25 ± 0.02
RII/RI [6]: 0.28
relative level of RI ([6]; control RI = 1.0 O.D.): 0.25 ± 0.03
relative level of RII ([6]; control RI = 1.0 O.D.): 0.07 ± 0.01
% G2 M (HL-60 Cells; control 8.3): 9.6%
% G0-G1 (HL-60 Cells; control 45.7): 44.4%
% S (HL-60 Cells; control 46): 46%
decrease in the RI level ([7]; densitometric tracings): 70-80%
increase in the ratio of RII to RI ([7]; densitometric tracings): two- to three-fold increase
RI and RII receptor levels ([7]; three days, FIG. 6): the cAMP receptor protein with a molecular weight of 52,000 increased appreciably with concomitant decrease of the 48,000 RI receptor protein
activity at 35 µM (MDA-MB-231 [8]): 45%

Compound: Nc1ncnc2c1nc(Cl)n2[C@@H]1O[C@H](CO)[C@@H](O)[C@H]1O [8-Cl-adenosine]
cell growth after release from treatment [10]: did not resume their growth up to two weeks after the release from the treatment
cell growth during treatment [10]: marked reduction in cell growth and eventually stopped replicating within three to four days
cell cycle phase distribution (LS-174T): appreciable increase of the cell population in G1 phase with a marked reduction in S-phase
p21 (Relative Level) ([11]; 3 days, 8-Cl-cAMP 10 μM, 8-Cl-adenosine 5 μM, DBcAMP 500 μM, control = 1.0 O.D.): 1.0 ± 0.1
p21 level ([11]; three days): did not appreciably affect the p21 level
RI receptor protein level [12]: not observed
c-myc protein level [13]: not observed
activity at 5 µM (MCF-7): 38%

Compound: Nc1ncnc2c1nc(Cl)n2[C@@H]1O[C@H](COP(=O)(O)O)[C@@H](O)[C@H]1O [8-Cl-AMP]
growth inhibition (cells): no appreciable growth inhibition
